Activity calls are given as the source filed them. The calls are words filed in the database; no cut-off is given here.
Columns and labels:
[1] = Resistance factor, ratio of IC50 for human K562/VCR cells to IC50 for human K562 cells; format: functional
K562 = experiment: Antiproliferative activity against human K562 cells after 72 hrs by CCK8 assay; format: functional, cell-based; conditions: K562, 72 h
K562/VCR [2] = experiment: Antiproliferative activity against human K562/VCR cells after 72 hrs by CCK8 assay; format: functional, cell-based
HL-60 = experiment: Cytotoxicity against human HL60 cells; format: functional, cell-based
K562/VCR [3] = experiment: Induction of apoptosis in human K562/VCR cells assessed as late apoptotic cells at 0.05 uM after 48 hrs by annexin-V-FITC/propidium iodide staining-based flow cytometric method (reference value: 1.90%); format: functional
[4] = molecular target: T1, c-Jun N-terminal kinase, JNK (Homo sapiens) (UniProt P45983+P53779+P45984); experiment: Induction of JNK phosphorylation in human K562/VCR cells at 0.05 uM after 48 hrs by Western blot method relative to beta-actin; format: cell-based
K562/VCR [5] = experiment: Induction of apoptosis in human K562/VCR cells assessed as downregulation of CDK2 expression at 0.05 uM after 48 hrs by Western blot method relative to beta-actin; format: functional
K562/VCR [6] = experiment: Downregulation of MRP-1 expression in human K562/VCR cells at 0.05 uM after 48 hrs by Western blot method relative to beta-actin; format: functional
K562/VCR [7] = experiment: Downregulation of P-gp expression in human K562/VCR cells at 0.1 uM after 48 hrs by Western blot method relative to beta-actin; format: functional
K562/VCR [8] = experiment: Cell cycle arrest in human K562/VCR cells assessed as accumulation at G1 phase at 0.1 uM after 48 hrs by propidium iodide staining-based flow cytometric method (reference value: 46.20%); format: functional
K562/VCR [9] = experiment: Reduction in mitochondrial membrane potential in human K562/VCR cells at 0.05 uM after 48 hrs by JC1 probe-based flow cytometric method (reference value: 2.65%); format: functional; design: scale not given: the % may be the effect or the level left
K562/VCR [10] = experiment: Cell cycle arrest in human K562/VCR cells assessed as accumulation at S phase at 0.05 uM after 48 hrs by propidium iodide staining-based flow cytometric method (reference value: 46.02%); format: functional
[11] = molecular target: RAC-alpha serine/threonine-protein kinase (Homo sapiens) (UniProt P31749); experiment: Inhibition of AKT phosphorylation in human K562/VCR cells at 0.05 uM after 48 hrs by Western blot method relative to beta-actin; format: cell-based
Chain of RAC-alpha serine/threonine-protein kinase (Homo sapiens) (P31749 whole entry): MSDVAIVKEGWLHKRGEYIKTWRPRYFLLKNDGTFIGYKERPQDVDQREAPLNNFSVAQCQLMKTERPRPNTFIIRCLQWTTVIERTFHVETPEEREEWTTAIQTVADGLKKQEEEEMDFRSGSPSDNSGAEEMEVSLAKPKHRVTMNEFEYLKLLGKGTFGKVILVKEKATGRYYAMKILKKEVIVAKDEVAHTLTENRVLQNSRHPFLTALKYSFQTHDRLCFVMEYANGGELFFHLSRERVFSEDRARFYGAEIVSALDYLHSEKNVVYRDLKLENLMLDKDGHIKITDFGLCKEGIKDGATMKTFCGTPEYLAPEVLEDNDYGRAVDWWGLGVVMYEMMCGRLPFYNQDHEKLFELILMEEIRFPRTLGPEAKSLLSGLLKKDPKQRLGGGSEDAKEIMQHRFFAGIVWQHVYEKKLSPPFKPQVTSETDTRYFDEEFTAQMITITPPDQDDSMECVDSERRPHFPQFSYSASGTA

K562/VCR [12] = experiment: Induction of apoptosis in human K562/VCR cells assessed as downregulation of CDK2 expression at 0.1 uM after 48 hrs by Western blot method relative to beta-actin; format: functional
K562/VCR [13] = experiment: Induction of autophagy in human K562/VCR cells assessed as upregulation of LC3-2 expression at 0.1 uM after 48 hrs by Western blot method relative to beta-actin; format: functional
K562/VCR [14] = experiment: Reduction in mitochondrial membrane potential in human K562/VCR cells at 0.1 uM after 48 hrs by JC1 probe-based flow cytometric method (reference value: 2.65%); format: functional; design: scale not given: the % may be the effect or the level left
K562/VCR [15] = experiment: Induction of apoptosis in human K562/VCR cells assessed as necrotic cells at 0.1 uM after 48 hrs by annexin-V-FITC/propidium iodide staining-based flow cytometric method (reference value: 0.15%); format: functional
K562/VCR [16] = experiment: Cell cycle arrest in human K562/VCR cells assessed as accumulation at G2 phase at 0.1 uM after 48 hrs by propidium iodide staining-based flow cytometric method (reference value: 7.78%); format: functional
K562/VCR [17] = experiment: Induction of apoptosis in human K562/VCR cells assessed as upregulation of cleaved PARP expression at 0.1 uM after 48 hrs by Western blot method relative to beta-actin; format: functional
K562/VCR [18] = experiment: Cell cycle arrest in human K562/VCR cells assessed as accumulation at S phase at 0.1 uM after 48 hrs by propidium iodide staining-based flow cytometric method (reference value: 46.02%); format: functional
[19] = molecular target: RAC-alpha serine/threonine-protein kinase (Homo sapiens) (UniProt P31749); experiment: Inhibition of AKT phosphorylation in human K562/VCR cells at 0.1 uM after 48 hrs by Western blot method relative to beta-actin; format: cell-based
K562/VCR [20] = experiment: Induction of apoptosis in human K562/VCR cells assessed as necrotic cells at 0.05 uM after 48 hrs by annexin-V-FITC/propidium iodide staining-based flow cytometric method (reference value: 0.15%); format: functional
K562/VCR [21] = experiment: Induction of reactive oxygen species formation in human K562/VCR cells at 0.1 uM after 24 hrs by DCFH-DA staining-based flow cytometric method (reference value: 0.41%); format: functional
K562/VCR [22] = experiment: Induction of apoptosis in human K562/VCR cells assessed as late apoptotic cells at 0.1 uM after 48 hrs by annexin-V-FITC/propidium iodide staining-based flow cytometric method (reference value: 1.90%); format: functional
[23] = molecular target: T1, c-Jun N-terminal kinase, JNK (Homo sapiens); experiment: Induction of JNK phosphorylation in human K562/VCR cells at 0.1 uM after 48 hrs by Western blot method relative to beta-actin; format: cell-based
K562/VCR [24] = experiment: Induction of apoptosis in human K562/VCR cells assessed as viable cells at 0.05 uM after 48 hrs by annexin-V-FITC/propidium iodide staining-based flow cytometric method (reference value: 91.05%); format: functional; conditions: read-out: Activity
K562/VCR [25] = experiment: Cell cycle arrest in human K562/VCR cells assessed as accumulation at G2 phase at 0.05 uM after 48 hrs by propidium iodide staining-based flow cytometric method (reference value: 7.78%); format: functional
K562/VCR [26] = experiment: Induction of autophagy in human K562/VCR cells assessed as upregulation of beclin-1 expression at 0.1 uM after 48 hrs by Western blot method relative to beta-actin; format: functional
Homo sapiens = species on record: Homo sapiens; experiment: Inhibition of alpha-tubulin polymerization in human K562/VCR cells assessed as disruption of microtubule organization at 0.05 to 0.1 uM after 24 hrs by DAPI staining-based immunofluorescence assay; format: cell-based
K562/VCR [27] = experiment: Induction of reactive oxygen species formation in human K562/VCR cells at 0.05 uM after 24 hrs by DCFH-DA staining-based flow cytometric method (reference value: 0.41%); format: functional
K562/VCR [28] = experiment: Induction of apoptosis in human K562/VCR cells assessed as early apoptotic cells at 0.05 uM after 48 hrs by annexin-V-FITC/propidium iodide staining-based flow cytometric method (reference value: 6.90%); format: functional
K562/VCR [29] = experiment: Cell cycle arrest in human K562/VCR cells assessed as accumulation at G1 phase at 0.05 uM after 48 hrs by propidium iodide staining-based flow cytometric method (reference value: 46.20%); format: functional
K562/VCR [30] = experiment: Induction of autophagy in human K562/VCR cells assessed as upregulation of beclin-1 expression at 0.05 uM after 48 hrs by Western blot method relative to beta-actin; format: functional
K562/VCR [31] = experiment: Induction of apoptosis in human K562/VCR cells assessed as early apoptotic cells at 0.1 uM after 48 hrs by annexin-V-FITC/propidium iodide staining-based flow cytometric method (reference value: 6.90%); format: functional
K562/VCR [32] = experiment: Induction of autophagy in human K562/VCR cells assessed as upregulation of LC3-2 expression at 0.05 uM after 48 hrs by Western blot method relative to beta-actin; format: functional
K562/VCR [33] = experiment: Downregulation of MRP-1 expression in human K562/VCR cells at 0.1 uM after 48 hrs by Western blot method relative to beta-actin; format: functional
K562/VCR [34] = experiment: Induction of apoptosis in human K562/VCR cells assessed as downregulation of CDK1 expression at 0.05 uM after 48 hrs by Western blot method relative to beta-actin; format: functional
K562/VCR [35] = experiment: Induction of apoptosis in human K562/VCR cells assessed as downregulation of CDK1 expression at 0.1 uM after 48 hrs by Western blot method relative to beta-actin; format: functional
K562/VCR [36] = experiment: Induction of apoptosis in human K562/VCR cells assessed as upregulation of cleaved PARP expression at 0.05 uM after 48 hrs by Western blot method relative to beta-actin; format: functional
K562/VCR [37] = experiment: Downregulation of P-gp expression in human K562/VCR cells at 0.05 uM after 48 hrs by Western blot method relative to beta-actin; format: functional
K562/VCR [38] = experiment: Induction of apoptosis in human K562/VCR cells assessed as viable cells at 0.1 uM after 48 hrs by annexin-V-FITC/propidium iodide staining-based flow cytometric method (reference value: 91.05%); format: functional; conditions: read-out: Activity

Which “Ratio IC50” value [1] does the source give for COc1cc([C@@H]2c3cc4c(cc3[C@H](OC(=O)CCCN3C(=O)/C(=C5\Nc6ccccc6C5=O)c5ccccc53)[C@H]3COC(=O)[C@H]23)OCO4)cc(OC)c1OC here?
The value was 0.97.

And the IC50 (K562)?
Its IC50 is 1.79 µM.

And the IC50 (K562/VCR [2])?
The IC50 was 1.75 µM.

What does the source list for O=C1Nc2ccccc2/C1=C1/Nc2ccccc2C1=O [INDIRUBIN]?
IC50 (K562): > 100 µM; IC50 (K562/VCR [2]): > 100 µM

With CN(C)CCN1C(=O)/C(=C2\Nc3ccccc3C2=O)c2ccccc21 as the compound, how does the IC50 (HL-60) read?
Its IC50 is 3.56 µM.

For CC[C@]1(O)C[C@H]2CN(CCc3c([nH]c4ccccc34)[C@@](C(=O)OC)(c3cc4c(cc3OC)N(C=O)[C@H]3[C@@](O)(C(=O)OC)[C@H](OC(C)=O)[C@]5(CC)C=CCN6CC[C@]43[C@@H]65)C2)C1 [VINCRISTINE], which “Ratio IC50” value [1] is on record?
Its value is 26.61.

What about the IC50 (K562) of the same compound?
Its IC50 is 0.178 µM.

And the IC50 (K562/VCR [2])?
The IC50 was 4.74 µM.

For COc1cc([C@@H]2c3cc4c(cc3[C@H](OC(=O)CN3C(=O)/C(=C5\Nc6ccccc6C5=O)c5ccccc53)[C@H]3COC(=O)[C@H]23)OCO4)cc(OC)c1OC, which Activity (K562/VCR [3]) is on record?
Its Activity is 9.61%.

What about the fold change (FC) [4] of the same compound?
Its fold change (FC) is 0.7.

What about the “fold change (FC)” value (K562/VCR [5]) of the same compound?
The value was 0.44.

What about the “fold change (FC)” value (K562/VCR [6]) of the same compound?
Its value is 0.31.

And the “fold change (FC)” value (K562/VCR [7])?
The value was 0.33.

And the Activity (K562/VCR [8])?
The Activity was 17.33%.

And the Activity (K562/VCR [9])?
The Activity was 19.44%.

What about the Activity (K562/VCR [10]) of the same compound?
Its Activity is 29.81%.

What about the fold change (FC) [11] of the same compound?
Its fold change (FC) is 0.6.

And the “fold change (FC)” value (K562/VCR [12])?
Its value is 0.36.

And the “fold change (FC)” value (K562/VCR [13])?
The value was 0.63.

And the Activity (K562/VCR [14])?
Its Activity is 40.38%.

And the Activity (K562/VCR [15])?
The Activity was 0.1%.

And the Activity (K562/VCR [16])?
Its Activity is 56.97%.

And the “fold change (FC)” value (K562/VCR [17])?
The value was 0.56.

What about the Activity (K562/VCR [18]) of the same compound?
The Activity was 25.7%.

And the fold change (FC) [19]?
The fold change (FC) was 0.43.

And the Activity (K562/VCR [20])?
The Activity was 0.07%.

What about the Activity (K562/VCR [21]) of the same compound?
The Activity was 39.84%.

And the Activity (K562/VCR [22])?
The Activity was 18.91%.

What about the fold change (FC) [23] of the same compound?
Its fold change (FC) is 0.84.

What about the viability at 0.05 µM (K562/VCR [24]) of the same compound?
The viability at 0.05 µM was 76.8%.

And the Activity (K562/VCR [25])?
The Activity was 46.93%.

What about the “fold change (FC)” value (K562/VCR [26]) of the same compound?
The value was 0.6.

What about the inhibition (Homo sapiens) of the same compound?
Its inhibition is “Active”.

And the “Ratio IC50” value [1]?
Its value is 2.23.

And the IC50 (K562)?
Its IC50 is 0.034 µM.

And the Activity (K562/VCR [27])?
The Activity was 24.27%.

What about the Activity (K562/VCR [28]) of the same compound?
Its Activity is 13.48%.

What about the Activity (K562/VCR [29]) of the same compound?
Its Activity is 23.26%.

And the “fold change (FC)” value (K562/VCR [30])?
Its value is 0.52.

And the Activity (K562/VCR [31])?
The Activity was 28.58%.

And the IC50 (K562/VCR [2])?
Its IC50 is 0.076 µM.

And the “fold change (FC)” value (K562/VCR [32])?
Its value is 0.78.

And the “fold change (FC)” value (K562/VCR [33])?
The value was 0.24.

And the “fold change (FC)” value (K562/VCR [34])?
The value was 0.44.

What about the “fold change (FC)” value (K562/VCR [35]) of the same compound?
The value was 0.32.

What about the “fold change (FC)” value (K562/VCR [36]) of the same compound?
The value was 0.46.

And the “fold change (FC)” value (K562/VCR [37])?
Its value is 0.4.

What about the viability at 0.1 µM (K562/VCR [38]) of the same compound?
The viability at 0.1 µM was 52.4%.

From ChEMBL document CHEMBL4118137, “Design, synthesis and antineoplastic activity of novel hybrids of podophyllotoxin and indirubin against human leukaemia cancer cells as multifunctional anti-MDR agents” (Bioorg Med Chem Lett, 2018)
